Test results reported in patent US12247004B2, “2-amino-N-(amino-oxo-aryl-lambda6-sulfanylidene)acetamide compounds and their therapeutic use” (Oxford Drug Design Limited, priority 2019, dated 2025).
In brackets after ≈: the same amount, converted by molar mass. Where two headings read alike, the source gives them in different places.

Tests used:
[1] = Human cell viability / cytotoxicity (CellTiter-Glo, 24 hours); format: cell-based; details: human, HepG2 cells (ATCC HB-8065); HepG2 ATCC HB-8065, 24 hours; read-out: Cytotoxicity in HepG2 ATCC HB-8065 Cell Line, IC50
Description: Study 3—Human Cell Viability
Compounds were assessed for potential non-specific cytotoxic effects against a human hepatic cell line (HepG2 ATCC HB-8065). 96-well plates were seeded with HepG2 cells in concentration of 15,000 cells per well in 100 μL of MEM growth media completed with 1% NEAA and 1% sodium pyruvate. Border wells were filled with 100 μL of sterile PBS. Two days upon cells incubation, the compounds were added. Compound dilutions were prepared in 96-well V-bottom plate in pure DMSO. Growth media from 5 plates were aspirated and replaced with 98.7 μL of fresh growth media. 1.28 μL of compounds prepared in V-bottom plates were transferred with multichannel pipette into test plates (78.1× dilution). Final DMSO concentration was 1.28% per well. In control wells, 1.28 μL of DMSO was added in 98.7 μL of media. Compounds were tested in duplicates. Cells were incubated with compounds for 24 hours when cell viability was assessed by measuring ATP levels. ATP levels were measured by adding 50 μL of CellTiter-Glo reagent to each well and after 5 minutes of incubation luminescence was measured with SpectraMax i3. The potential effect of tested compounds on cell viability was determined by comparing the signal obtained in presence of different concentrations of the compounds with those obtained in the presence of DMSO only. The potential effects were then calculated and presented as IC50 values (μg/mL).

[2] = target: Leucyl-tRNA synthetase (LeuRS) (Escherichia coli (strain K12), UniProt P07813); assay: Leucyl-tRNA synthetase enzyme inhibition (AMP-Glo; single point % inhibition at 100 μM and IC50); format: biochemical
Leucyl-tRNA synthetase (LeuRS), sequence (P07813 whole entry, looked up): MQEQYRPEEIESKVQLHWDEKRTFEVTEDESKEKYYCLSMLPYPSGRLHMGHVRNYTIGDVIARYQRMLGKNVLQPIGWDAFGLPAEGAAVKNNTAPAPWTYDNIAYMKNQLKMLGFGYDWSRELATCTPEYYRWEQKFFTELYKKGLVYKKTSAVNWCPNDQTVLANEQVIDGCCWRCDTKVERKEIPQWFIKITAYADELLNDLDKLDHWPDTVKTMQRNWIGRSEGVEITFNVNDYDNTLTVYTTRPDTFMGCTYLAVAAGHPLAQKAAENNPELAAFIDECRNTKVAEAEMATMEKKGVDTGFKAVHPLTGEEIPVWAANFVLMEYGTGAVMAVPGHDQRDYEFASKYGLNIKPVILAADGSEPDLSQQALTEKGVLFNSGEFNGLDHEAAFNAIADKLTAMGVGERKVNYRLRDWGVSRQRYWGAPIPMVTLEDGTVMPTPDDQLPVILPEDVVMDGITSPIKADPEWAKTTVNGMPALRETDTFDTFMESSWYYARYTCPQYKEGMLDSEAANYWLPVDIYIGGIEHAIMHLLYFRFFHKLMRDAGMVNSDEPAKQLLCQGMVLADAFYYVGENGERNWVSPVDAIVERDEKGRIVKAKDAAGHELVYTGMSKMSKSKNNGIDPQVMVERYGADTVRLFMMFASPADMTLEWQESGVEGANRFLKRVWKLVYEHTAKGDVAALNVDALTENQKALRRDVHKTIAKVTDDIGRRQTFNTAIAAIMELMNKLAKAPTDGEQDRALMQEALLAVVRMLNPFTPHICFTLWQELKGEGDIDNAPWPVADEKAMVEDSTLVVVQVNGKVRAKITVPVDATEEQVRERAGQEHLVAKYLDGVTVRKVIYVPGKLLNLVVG
From the text: Study 1—Enzyme Inhibition
The aminoacylation reaction catalyzed by aminoacyl-tRNA synthetases (aaRS) takes place in two steps. In the first step, aaRS activates its cognate amino acid with ATP; and in the second step the activated amino acid is loaded to its corresponding tRNA. This reaction can be summarized as follows: aaRS+aa+ATP=aaRS-aa-AMP+PPi aaRS-aa-AMP+tRNA=aa-tRNA+AMP+aaRS
wherein: aaRS, aminoacyl-tRNA synthetase; aa, amino acid; aaRS-aa-AMP, enzyme-bound to aminoacyl-adenylate; AMP, adenosine monophosphate; aa-tRNA, aminoacyl-tRNA, PPi, inorganic pyrophosphate.
a. Single Point Percentage Inhibition
The activity of the pathogenic aaRSs was monitored by measuring AMP production using the commercial kit AMP-Glo (Promega, Madison, USA).
Ligand stock solutions were prepared in 100% DMSO at 10 mM concentration. An assay buffer consisting of 100 mM Tris HCl pH 7.6, 40 mM MgCl, 20 mM KCl and 150 mM NaCl was prepared in dH2O.
Using the same enzymatic assay in a 384-well plate format, ten point concentration response curves were generated for each compound using a top concentration of 10 μM. The known inhibitor LeuAMS was used as a positive control for the LeuRS assay. 100% DMSO was used as a negative control. The IC50 was calculated based on non-linear regression analysis.

[3] = test system: bacteria (ATCC reference strains); assay: Antibacterial activity, MIC by broth micro-dilution (CLSI)
[4] = E. coli LeuRS, read-out: Enzyme Inhibition - IC50, E. coli LeuRS
[5] = Escherichia coli, BAA2469, read-out: Antibacterial Activity (MIC), G = E. coli BAA-2469
[6] = Klebsiella pneumoniae, ATCC700603, read-out: Antibacterial Activity (MIC), C = K. pneumoniae ATCC 700603
[7] = Escherichia coli, ATCC25922, read-out: Antibacterial Activity (MIC), A = E. coli ATCC 25922
[8] = Haemophilus influenzae, ATCC49247, read-out: Antibacterial Activity (MIC), F = H. influenzae ATCC 49247
[9] = Acinetobacter baumannii, read-out: Antibacterial Activity (MIC), E = A. baumannii B1931
[10] = Enterobacter cloacae, read-out: Antibacterial Activity (MIC), B = Enterobacter cloacae B1966
[11] = Pseudomonas aeruginosa, ATCC27853, read-out: Antibacterial Activity (MIC), D = P. aeruginosa ATCC 27853

Structure (SMILES)	IC50 at 24 h [1] [µg/mL]	IC50 [2, 4] [nM]	IC50 [2] [nM]	MIC [3, 5] [µg/mL]	MIC [3, 7] [µg/mL]	also measured
CC(C)C[C@H](N)C(=O)N=[S@@](N)(=O)c1cccc(C(C)C)c1 [ANASIA-043-2]	> 64	735	–	–	–	–
CC(C)C[C@H](N)C(=O)N=[S@](N)(=O)c1c(F)cccc1F [ANASIA-026-1]	> 64	–	564	–	–	–
CC(C)C[C@H](N)C(=O)N=[S@](N)(=O)c1cccc(-c2ccccc2)c1 [ANASIA-018-1]	> 64	–	223	–	–	–
Cc1ccc([S@](N)(=O)=NC(=O)[C@@H](N)CC(C)C)s1 [ANASIA-014-2]	> 64	3980	–	–	–	–
CC[C@H](C)[C@H](N)C(=O)N=S(N)(=O)c1ccc2ccccc2c1 (some centres unmarked) [ANASIA-030]	> 64	–	–	–	–	–
CC(C)C[C@H](N)C(=O)N=S(N)(=O)c1ccc(Cl)c2ccccc12 (some centres unmarked) [ANASIA-019]	> 64	2260	–	–	–	–
CC(C)C[C@H](N)C(=O)N=[S@@](N)(=O)c1ccc(F)c2ccccc12 [ANASIA-020-2]	> 64	4090	–	–	–	–
CC(C)C[C@H](N)C(=O)N=[S@@](N)(=O)c1c(F)cccc1F [ANASIA-026-2]	> 64	4420	–	–	–	–
Cc1cc(F)ccc1[S@@](N)(=O)=NC(=O)[C@@H](N)CC(C)C [ANASIA-027-1]	> 64	–	4530	–	–	–
CC(C)C[C@H](N)C(=O)N=[S@@](N)(=O)c1cccc(C#N)c1 [ANASIA-041-2]	> 64	832	–	–	–	–
Cc1cccc([S@@](N)(=O)=NC(=O)[C@@H](N)CC(C)C)c1 [ANASIA-005-1]	> 64	–	3030	–	–	–
CC(C)C[C@H](N)C(=O)N=[S@](N)(=O)c1cccc2ccccc12 [ANASIA-016-1]	> 64	–	2200	–	–	–
CC(C)C[C@H](N)C(=O)N=[S@@](N)(=O)c1sccc1Cl [ANASIA-012-2]	> 64	3230	–	–	–	–
CC(C)C[C@H](N)C(=O)N=[S@@](N)(=O)c1ccc(Cl)c(Cl)c1 [ANASIA-042-2]	> 64	7920	–	–	–	–
CC(C)C[C@H](N)C(=O)N=[S@@](N)(=O)c1cccc(Cl)c1F [ANASIA-001-2]	> 64	3530	–	–	–	–
Cc1cnc(S(N)(=O)=NC(=O)[C@@H](N)CC(C)C)s1 (some centres unmarked) [ANASIA-039]	> 64	8830	–	–	–	–
COc1ccc([S@@](N)(=O)=NC(=O)[C@@H](N)CC(C)C)cc1C [ANASIA-022-1]	> 64	–	6570	–	–	–
CC(C)C[C@H](N)C(=O)N=[S@](N)(=O)c1cccc(C(C)(C)C)c1 [ANASIA-049-1]	> 64	–	296	–	–	–
CC(C)C[C@H](N)C(=O)N=[S@@](N)(=O)c1cc(F)ccc1F [ANASIA-024-2]	> 64	6280	–	–	–	–

Structure (SMILES)	IC50 at 24 h [1] [µg/mL]	IC50 [2, 4] [nM]	IC50 [2] [nM]	MIC [3, 5] [µg/mL]	MIC [3, 7] [µg/mL]	also measured
CC(C)C[C@H](N)C(=O)N=[S@](N)(=O)c1cc(F)cs1 [ANASIA-062-1]	–	–	47.5	8 (≈ 27.3 µM)	–	MIC [3, 6]: 32 µg/mL (≈ 109 µM)
CC(C)C[C@H](N)C(=O)N=[S@](N)(=O)c1cccc(F)c1 [ANASIA-011-1]	> 64	–	–	–	–	–
CC(C)C[C@H](N)C(=O)N=[S@](N)(=O)c1csc2cccnc12.Cl [ANASIA-131-1]	–	–	530	> 64	32	MIC [3, 6]: 256 µg/mL
Cc1csc([S@@](N)(=O)=NC(=O)[C@@H](N)CC(C)C)c1C.Cl [ANASIA-104-1]	–	–	241	16	8	MIC [3, 6]: 128 µg/mL
CC(C)C[C@H](N)C(=O)N=[S@](N)(=O)c1cccc(C(F)(F)F)c1.Cl [ANASIA-089-1]	–	–	195	–	64	MIC [3, 8]: 64 µg/mL
CC(C)C[C@H](N)C(=O)N=[S@](N)(=O)c1csc2ccsc12.Cl [ANASIA-100-1]	–	–	27.8	5.66	1	MIC [3, 9]: 16 µg/mL; MIC [3, 10]: 16 µg/mL; MIC [3, 6]: 45.3 µg/mL; MIC [3, 11]: 64 µg/mL
CC(C)C[C@H](N)C(=O)N=S(N)(=O)c1ccccc1O (stereo partly drawn) [ANASIA-113, (2S)-2-amino-N-(amino(2-hydroxyphenyl)(oxo)-λ6-sulfanylidene)-4-methylpentanamide]	–	3230	–	–	64 (≈ 224 µM)	–
Cc1sccc1[S@@](N)(=O)=NC(=O)[C@@H](N)CC(C)C.Cl [ANASIA-091-1]	–	–	847	> 64	64	–
CC(C)C[C@H](N)C(=O)N=S(N)(=O)c1cccc(F)c1 (some centres unmarked) [ANASIA-011]	> 64	–	–	–	–	–
CC(C)C[C@H](N)C(=O)N=[S@@](N)(=O)c1cccc(F)c1 [ANASIA-011-2]	> 64	–	–	–	–	–
CC(C)C[C@H](N)C(=O)N=S(N)(=O)c1csc(F)c1 (some centres unmarked) [ANASIA-060]	–	227	–	16 (≈ 54.5 µM)	–	MIC [3, 6]: 32 µg/mL (≈ 109 µM)
Cc1cc([S@@](N)(=O)=NC(=O)[C@@H](N)CC(C)C)cs1.Cl [ANASIA-098-1]	–	–	148	4	3.17	MIC [3, 9]: 64 µg/mL; MIC [3, 10]: 16 µg/mL; MIC [3, 6]: 32 µg/mL; MIC [3, 11]: 64 µg/mL
CC(C)C[C@H](N)C(=O)N=[S@@](N)(=O)c1csc(C#N)c1.Cl [ANASIA-135-2]	–	262	–	64	8	MIC [3, 6]: > 256 µg/mL
CC(C)C[C@H](N)C(=O)N=[S@](N)(=O)c1ccc(C(F)F)s1.Cl [ANASIA-017-1]	> 64	–	–	22.6	4	MIC [3, 9]: > 64 µg/mL; MIC [3, 8]: 4 µg/mL; MIC [3, 6]: > 256 µg/mL; MIC [3, 11]: > 64 µg/mL
CC(C)C[C@H](N)C(=O)N=[S@](N)(=O)c1cc(C#N)cs1.Cl [ANASIA-136-1]	–	–	71.8	> 64	8	MIC [3, 6]: > 256 µg/mL
CCc1ccsc1[S@@](N)(=O)=NC(=O)[C@@H](N)CC(C)C.Cl [ANASIA-119-1]	–	–	99.7	8	4	MIC [3, 9]: 32 µg/mL; MIC [3, 10]: 32 µg/mL; MIC [3, 6]: 64 µg/mL; MIC [3, 11]: > 64 µg/mL
CC(=O)c1sccc1[S@@](N)(=O)=NC(=O)[C@@H](N)CC(C)C (single isomer, unassigned) [ANASIA-112-1]	–	–	294	64 (≈ 202 µM)	32 (≈ 101 µM)	–
CC(C)C[C@H](N)C(=O)N=S(N)(=O)c1sccc1F (some centres unmarked) [ANASIA-070]	–	143	–	32 (≈ 109 µM)	–	MIC [3, 6]: 64 µg/mL (≈ 218 µM)
